Results taken from article PMC5451472, “Novel Locally Active Estrogens Accelerate Cutaneous Wound Healing-Part 2” (Scientific Reports, 2017).

Legend:
[1] = system: ER transcriptional activity; experiment: Ex vivo BLI and luciferase enzymatic assay in organs of ERE-Luc mice; set-up: species or system mouse; settings: 200 µg/kg s.c., 6 hours after treatment
Description: We next examined photon emission in a series of organs excised from the mice euthanized at 6 hours after treatment by measuring photon emission with the CCD camera (Fig. 6a) and by the more sensitive enzymatic assay in tissue extracts of each organ (Fig. 6b).
The selected organs were dissected from the animals who had received luciferine 20 min before euthanasia. The tissues were immediately subjected to ex vivo imaging session of 5 minutes. Photon emission was quantified with the Living Image Software (Caliper, PerkinElmer company) for each tissue and expressed as p/s/cm2/sr.
(§1) Luciferase enzymatic activity was measured in cells or selected tissue homogenates by a luminometer (Glomax™96 microplate luminometer; Promega) using Promega standard luciferin (Beetle Luciferin Potassium Salt) and expressed as Relative Light Units over 10 sec/μg protein (RLU/μg protein). Proteins concentrations were measured by Bradford.

[2] = system: ER transcriptional activity; experiment: Whole body in vivo bioluminescence imaging of ERE-Luc mice, dose-response after s.c. administration; set-up: species or system mouse; settings: for Photon Emission, whole body: 6 h vs 0 h, n = 4
Text: To investigate the activity of 1e and 1f at systemic level, we utilized the ERE-Luc reporter mice. The ERE-luc is a transgenic model obtained by random integration of a luciferase reporter driven by an estrogen-responsive promoter. The ubiquitous, regulated expression of luciferase was obtained by flanking the reporter construct with insulators.
Here, the first study we carried out was a large-range dose-response analysis to measure whole body luciferase assay after subcutaneous administration of: (1) the vehicle; (2) corn oil as control; (3) the two compounds 1e and 1f at the dosage of 20 μg/kg, 200 μg/kg, 2 mg/kg and 20 mg/kg. The mice (4 for each experimental group) were subjected to in vivo whole body imaging 6 h after the pharmacological treatment. This time was selected on the basis of previous studies showing that the peak of ER transcriptional activation generally occurs at 6–8 h after administration of the estrogenic compounds[16], [17].
For the semi-quantitative analysis of in vivo photon emission, animals were injected i.p. with 80 mg/kg of luciferin (Beetle Luciferin Potassium Salt; Promega, Madison, WI, USA) 15 min prior the imaging session. For the imaging, mice were anaesthetized using isofluorane (Isofluorane-Vet; Merial, Lyon, France) and kept under anesthesia during the 5 minutes of the session carried out with a CCD camera: both ventral and dorsal acquisition (Xenogen IVIS Lumina System; Caliper, PerkinElmer company). Photon emission in selected body areas was measured using the Living Image Software (Caliper, PerkinElmer company). The analysis was done in ventral view: whole body, thymus, hepatic area, abdomen, limbs, vagina and in dorsal view in wound area and expressed as photon/second/cm2/steradiant (p/s/cm2/sr).

ERs = target: T1, ERs (Homo sapiens, UniProt P03372); experiment: ER transactivation assay in ERE-Luc B17 cells (luciferase reporter); format: cell-based
T1 construct: endogenous in cells; host or cells: MCF-7, clone ERE-Luc B17 (only the luciferase reporter is transfected)
T1 sequence (P03372 1-595): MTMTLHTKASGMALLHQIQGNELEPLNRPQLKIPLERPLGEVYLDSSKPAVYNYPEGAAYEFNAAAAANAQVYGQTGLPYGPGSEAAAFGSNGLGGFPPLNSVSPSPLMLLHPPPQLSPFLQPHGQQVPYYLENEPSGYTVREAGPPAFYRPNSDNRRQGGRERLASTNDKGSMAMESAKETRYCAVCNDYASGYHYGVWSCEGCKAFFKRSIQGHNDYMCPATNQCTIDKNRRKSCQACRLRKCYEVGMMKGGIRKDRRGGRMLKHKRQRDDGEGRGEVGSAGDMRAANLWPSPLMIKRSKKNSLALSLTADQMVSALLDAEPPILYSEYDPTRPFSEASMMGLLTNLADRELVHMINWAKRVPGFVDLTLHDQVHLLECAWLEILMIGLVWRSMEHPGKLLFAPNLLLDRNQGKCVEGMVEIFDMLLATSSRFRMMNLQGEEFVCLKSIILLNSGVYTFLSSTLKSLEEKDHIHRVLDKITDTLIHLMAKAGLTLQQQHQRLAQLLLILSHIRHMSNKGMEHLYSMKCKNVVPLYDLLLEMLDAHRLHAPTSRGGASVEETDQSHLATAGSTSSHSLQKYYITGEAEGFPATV
Description: The ability of the novel compounds to transcriptionally activate ERs was tested in ERE-Luc B 17 cells, a clone of the breast cancer cell line MCF-7 stably transfected with a reporter constituted by the luciferase gene driven by an estrogen-regulated synthetic promoter previously generated and tested in our laboratories.
Cells were split twice a week by seeding 2 × 10^6 cells in 100 mm diameter Petri (Corning) dishes.
After 24 h cells were rinsed once with PBS before preparing the protein extract for the determination of luciferase content. Each experiment was carried out in duplicate.
as §1
Analysis of transactivation data and calculation of EC50 values were performed by means of sigmoidal dose-response (variable slope) using PRISM5 software (GraphPad Software Inc.).

Structure (SMILES): CCCCOC(=O)CCC#C[C@]1(O)CC[C@H]2[C@@H]3CCc4cc(O)ccc4[C@H]3CC[C@@]21C [1e, 3,17β-Hydroxy-17α-(4′carbobutoxy-1′-butyn-1′-yl)estra-1,3,5-(10)-triene]
- bioluminescence in excised organs (ex vivo BLI, enzymatic luciferase assay) [1]: did not induce bioluminescence in any of the organs investigated
- Photon Emission, whole body ([2]; 2 mg/kg s.c.): 3 x
- Photon Emission, whole body ([2]; 20 mg/kg s.c.): 12 x
- expression of the luciferase reporter ([2]; 2 and 20 mg/kg s.c., 6 h): induced the expression of the luciferase reporter around the area of subcutaneous injection and in some other body areas
- effect at systemic level (whole body luciferase) ([2]; 20 and 200 μg/kg s.c., 6 h): did not induce any measurable effect
- EC50 (ERs; ERE-Luc B17 cells (MCF-7 clone), 24 h, luciferase activity, sigmoidal dose-response, read-out: EC50 (transactivation potency)): 1.3 nM
- fold induction at 10 µM (ERs; ERE-Luc B17 cells, 10^-5 M of compound respect to vehicle): 2.6
